Laboratory results: PubChem BioAssay AID248 (DTP/NCI, 2004)
Values joined by “and” are separate entries in the source; they are usually repeats but may differ in a detail not shown here. Equal values may be shown once. Inconclusive results and toxic doses are left out. Rule as the data show it: active = T/C of 150% or more; inactive = T/C below 125%.

Tested on: L1210 leukemia ip in BDF1 mice, survival T/C
Assay: NCI In Vivo Anticancer Drug Screen. Data for tumor model L1210 Leukemia (intraperitoneal) in B6D2F1 (BDF1) mice
Conditions: endpoint: mean survival time, higher = longer survival
Method in brief: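 In this screen, tumor-bearing mice given compound are compared to those given vehicle, and their survival values are reported as a treated-to-control quotient.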

[1] = dose: 100.0 mg/kg/injection, schedule: Q04DX003 (ip), vehicle: Klucel (hydroxypropylcellulose) (HPC)
[2] = dose: 200.0 mg/kg/injection, schedule: Q04DX003 (ip), vehicle: Klucel (hydroxypropylcellulose) (HPC)
[3] = dose: 400.0 mg/kg/injection, schedule: Q04DX003 (ip), vehicle: Klucel (hydroxypropylcellulose) (HPC)
[4] = dose: 100.0 mg/kg/injection, schedule: Q04DX002 (ip), vehicle: Klucel (hydroxypropylcellulose) (HPC)
[5] = dose: 100.0 mg/kg/injection, schedule: Q04DX003 (ip), vehicle: saline with Tween-80
[6] = dose: 200.0 mg/kg/injection, schedule: Q04DX003 (ip), vehicle: saline with Tween-80
[7] = dose: 100.0 mg/kg/injection, schedule: Q01DX001 (ip), vehicle: saline
[8] = dose: 100.0 mg/kg/injection, schedule: Q04DX003 (ip), vehicle: saline
[9] = dose: 200.0 mg/kg/injection, schedule: Q04DX003 (ip), vehicle: saline
[10] = dose: 400.0 mg/kg/injection, schedule: Q04DX003 (ip), vehicle: saline

Measured: T/C

OC(Nc1ncccn1)C(Cl)(Cl)Cl (stereo not drawn)
inactive: dose: 100.0 mg/kg/injection, schedule: Q01DX009 (ip), vehicle: saline sonified 96 % of control | [1] 95 % of control | dose: 200.0 mg/kg/injection, schedule: Q01DX009 (ip), vehicle: saline sonified 94 % of control | [2] 102 % of control | dose: 400.0 mg/kg/injection, schedule: Q01DX009 (ip), vehicle: saline sonified 89 % of control | [3] 101 % of control

O=C(C1C(c2ccccc2)C1c1ccccc1)N(CCO)Cc1ccccc1 (stereo not drawn)
inactive: dose: 25.0 mg/kg/injection, schedule: Q04DX002 (ip), vehicle: Klucel (hydroxypropylcellulose) (HPC) 94 % of control | dose: 50.0 mg/kg/injection, schedule: Q04DX002 (ip), vehicle: Klucel (hydroxypropylcellulose) (HPC) 103 % of control | [4] 94 % of control

NCC1OC(n2ccc(=O)[nH]c2=O)CC1O (stereo not drawn)
inactive: dose: 25.0 mg/kg/injection, schedule: Q04DX002 (ip), vehicle: saline 93 % of control | dose: 50.0 mg/kg/injection, schedule: Q04DX002 (ip), vehicle: saline 101 % of control | dose: 100.0 mg/kg/injection, schedule: Q04DX002 (ip), vehicle: saline 108 % of control

CCCCNC(=O)C1CC2c3c(Br)ccc4c3C(CC2N(C)C1)CN4C(C)=O (stereo not drawn)
inactive: dose: 20.0 mg/kg/injection, schedule: Q01DX001 (ip), vehicle: Klucel (hydroxypropylcellulose) (HPC) 98 % of control

COc1cc([N+](=O)[O-])ccc1S(=O)(=O)Cl
inactive: dose: 25.0 mg/kg/injection, schedule: Q01DX009 (ip), vehicle: saline with Tween-80 91 % of control | dose: 25.0 mg/kg/injection, schedule: Q04DX002 (ip), vehicle: saline with Tween-80 104 % of control | dose: 25.0 mg/kg/injection, schedule: Q04DX003 (ip), vehicle: saline with Tween-80 97 % of control | dose: 50.0 mg/kg/injection, schedule: Q01DX001 (ip), vehicle: saline with Tween-80 101 % of control | dose: 50.0 mg/kg/injection, schedule: Q01DX009 (ip), vehicle: saline with Tween-80 91 % of control | dose: 50.0 mg/kg/injection, schedule: Q04DX002 (ip), vehicle: saline with Tween-80 93 % of control and 120 % of control | dose: 50.0 mg/kg/injection, schedule: Q04DX003 (ip), vehicle: saline with Tween-80 103 % of control | dose: 100.0 mg/kg/injection, schedule: Q01DX001 (ip), vehicle: saline with Tween-80 92 % of control | [5] 94 % of control | [6] 88 % of control

CCNC(=O)NCc1ccccc1Cl
inactive: [4] 97 % of control | dose: 200.0 mg/kg/injection, schedule: Q04DX002 (ip), vehicle: Klucel (hydroxypropylcellulose) (HPC) 102 % of control | dose: 400.0 mg/kg/injection, schedule: Q04DX002 (ip), vehicle: Klucel (hydroxypropylcellulose) (HPC) 112 % of control

CC1(C)SC(C)(C)C1=O
inactive: dose: 50.0 mg/kg/injection, schedule: Q04DX002 (ip), vehicle: gum acacia 100 % of control | dose: 100.0 mg/kg/injection, schedule: Q04DX002 (ip), vehicle: gum acacia 96 % of control | dose: 200.0 mg/kg/injection, schedule: Q04DX002 (ip), vehicle: gum acacia 107 % of control

O=[N+]([O-])c1cc(Cl)cc2c1-c1ccc(Cl)cc1C2
inactive: [1] 98 % of control | [2] 98 % of control | [3] 98 % of control

COC1C=CC23c4cc5c(cc4C(O)OC2CN(C)C3C1)OCO5 (stereo not drawn)
inactive: [7] 106 % of control

CC(=O)Nc1ccc(N)cc1N
inactive: dose: 50.0 mg/kg/injection, schedule: Q04DX003 (ip), vehicle: saline 98 % of control | [5] 102 % of control | [8] 92 % of control and 89 % of control | [6] 115 % of control | [9] 98 % of control | dose: 400.0 mg/kg/injection, schedule: Q04DX003 (ip), vehicle: saline with Tween-80 100 % of control | [10] 89 % of control

S=C1NC(c2ccco2)N2C(=S)NC(c3ccco3)N12 (stereo not drawn)
inactive: dose: 100.0 mg/kg/injection, schedule: Q01DX009 (ip), vehicle: gum acacia 90 % of control | dose: 100.0 mg/kg/injection, schedule: Q04DX003 (ip), vehicle: gum acacia 97 % of control | dose: 200.0 mg/kg/injection, schedule: Q01DX009 (ip), vehicle: gum acacia 95 % of control | dose: 200.0 mg/kg/injection, schedule: Q04DX003 (ip), vehicle: gum acacia 103 % of control | dose: 400.0 mg/kg/injection, schedule: Q01DX009 (ip), vehicle: gum acacia 95 % of control | dose: 400.0 mg/kg/injection, schedule: Q04DX003 (ip), vehicle: gum acacia 98 % of control

CCOP(=S)(N/N=C1/CCCC(C)C1)OCC (stereo not drawn)
inactive: dose: 100.0 mg/kg/injection, schedule: Q01DX001 (ip), vehicle: carboxymethylcellulose (CMC) 93 % of control | dose: 200.0 mg/kg/injection, schedule: Q01DX001 (ip), vehicle: carboxymethylcellulose (CMC) 93 % of control | dose: 400.0 mg/kg/injection, schedule: Q01DX001 (ip), vehicle: carboxymethylcellulose (CMC) 97 % of control

COc1ccccc1OC(=O)Nc1ccc(S(=O)(=O)N(C)C)cc1
inactive: [7] 97 % of control | [8] 97 % of control | dose: 200.0 mg/kg/injection, schedule: Q01DX001 (ip), vehicle: saline 100 % of control | [9] 95 % of control | dose: 400.0 mg/kg/injection, schedule: Q01DX001 (ip), vehicle: saline 91 % of control | [10] 97 % of control

CCSc1nc(N)c(Br)c(Sc2nc(N)nc3nc[nH]c23)n1
inactive: dose: 100.0 mg/kg/injection, schedule: Q01DX Z (ip), vehicle: methylcellulose (MC) 98 % of control

COc1cc(C2=N/C(=C\C=C\c3ccccc3)C(=O)O2)cc(OC)c1OC
inactive: dose: 100.0 mg/kg/injection, schedule: Q04DX002 (ip), vehicle: saline with Tween-80 95 % of control | dose: 200.0 mg/kg/injection, schedule: Q04DX002 (ip), vehicle: saline with Tween-80 95 % of control | dose: 400.0 mg/kg/injection, schedule: Q04DX002 (ip), vehicle: saline with Tween-80 95 % of control

O=C(/C=C/c1ccc(Cl)c(Cl)c1)c1ccccc1[N+](=O)[O-]
inactive: dose: 100.0 mg/kg/injection, schedule: Q01DX009 (ip), vehicle: Klucel (hydroxypropylcellulose) (HPC) 103 % of control | dose: 200.0 mg/kg/injection, schedule: Q01DX009 (ip), vehicle: Klucel (hydroxypropylcellulose) (HPC) 97 % of control | dose: 400.0 mg/kg/injection, schedule: Q01DX009 (ip), vehicle: Klucel (hydroxypropylcellulose) (HPC) 92 % of control

CCN(CC)CCOC(=O)c1ccc(Cl)cc1
inactive: dose: 50.0 mg/kg/injection, schedule: Q01DX009 (ip), vehicle: saline 100 % of control | dose: 100.0 mg/kg/injection, schedule: Q01DX009 (ip), vehicle: saline 96 % of control | dose: 200.0 mg/kg/injection, schedule: Q01DX009 (ip), vehicle: saline 96 % of control

O=[N+]([O-])c1cccc(S/N=C/c2ccccc2)c1
inactive: [1] 100 % of control | [2] 95 % of control | [3] 105 % of control
